Results as given in patent publication US10815235B2, “Polycyclic compounds and uses thereof” (priority 2017, dated 2020).
Where two headings read alike, the source gives them in different places.

Target: T1, Serotonin 5-HT1F receptor (Homo sapiens, UniProt P30939)
T1 sequence (P30939 1-366): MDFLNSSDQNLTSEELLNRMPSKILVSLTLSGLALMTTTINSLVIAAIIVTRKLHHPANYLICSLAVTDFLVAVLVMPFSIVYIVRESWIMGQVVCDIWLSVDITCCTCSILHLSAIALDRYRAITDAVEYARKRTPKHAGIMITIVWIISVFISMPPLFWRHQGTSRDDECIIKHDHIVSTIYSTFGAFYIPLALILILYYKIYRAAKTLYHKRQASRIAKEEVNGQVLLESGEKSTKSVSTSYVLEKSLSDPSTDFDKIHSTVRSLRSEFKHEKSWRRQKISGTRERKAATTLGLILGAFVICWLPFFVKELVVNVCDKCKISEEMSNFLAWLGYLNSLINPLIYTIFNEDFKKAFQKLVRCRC
Assay: GTPγS Scintillation Proximity Assay, agonist and antagonist mode
Type: biochemical
Experimental: Antagonist and agonist activities were determined using a GTPγS Scintillation Proximity Assay. The assay was prepared as follows: Membrane extracts were prepared from recombinant human Dopamine D2L, D3; Serotonin 5-HT1A, 5-HT1B, 5-HT1D and 5-HT1F receptors.
Samples were tested by proprietary biological assays by Ogeda S. A., Euroscreen FAST Business Unit, Rue Adrienne Bolland, 47 B-6041 Gosselies, Belgium. Each protein assay was prepared using the following conditions.
5-HT1F • Assay buffer: 20 mM HEPES pH 7.4; 100 mM NaCl, 10 μg/ml saponin, 1 mM MgCl2; • Membranes: recombinant 5-HT1F membrane extracts thawed on ice and diluted in assay buffer to give 0.5 mg/ml (5 μg/well) and kept on ice; • GDP: diluted in assay buffer to give a 3 μM final assay concentration; • Beads: PVT-WGA (Perkin Elmer, RPNQ001), diluted in assay buffer at 50 mg/ml (0.5 mg/well); and • GTPγ^35S: (PerkinElmer NEG030X), diluted in assay buffer to give 0.1 nM.
Membranes were mixed with GDP (volume:volume 1:1) and incubated for at least 15 min on ice. […]
The plates were covered with a top seal, mixed on an orbital shaker for 2 min, and then incubated for 1 hour at room temperature. Then the plates were centrifuged for 10 min at 2000 rpm, incubated at room temperature 1 hour and counted for 1 min/well with a PerkinElmer TopCount reader. […]

CC[C@@H](CO)NC(=O)[C@@H]1C[C@@H]2c3cccc4c3c(c(C3CC3)n4C)C[C@H]2N(C)C1 [Compound D13H, (6aR,9R,10aR)-5-cyclopropyl-N—((S)-1-hydroxybutan-2-yl)-4,7-dimethyl-4,6,6a,7,8,9,10,10a-octahydroindolo[4,3-fg]quinoline-9-carboxamide]
EC50 (agonist mode, bound stated, read-out: EC50 value for the Serotonin 5-HT1F receptor): < 1000 nM
EC50 (membrane extracts, read-out: Agonist Activity (EC50), 5-HT1F): 260 nM
